According to ChEMBL document CHEMBL1201861, “Genomics of Drug Sensitity in Cancer screening data, Wellcome Trust Sanger Institute”:

What was measured:
Assay in all cases: cells
Ca9-22 = format: functional, cell-based; conditions: Homo sapiens
Description: SANGER: Inhibition of human Ca9-22 cell growth in a cell viability assay.

ABC-1 = format: functional, cell-based; conditions: Homo sapiens
Description: SANGER: Inhibition of human ABC-1 cell growth in a cell viability assay.

NCI-H727 = format: functional, cell-based; conditions: Homo sapiens
Description: SANGER: Inhibition of human NCI-H727 cell growth in a cell viability assay.

EC-GI-10 = format: functional, cell-based, Homo sapiens; conditions: Homo sapiens, EC-GI-10
Description: SANGER: Inhibition of human EC-GI-10 cell growth in a cell viability assay.

UMUC3 = format: functional, cell-based; conditions: Homo sapiens
Description: SANGER: Inhibition of human UM-UC-3 cell growth in a cell viability assay.

NCI-H1703 = format: functional, cell-based; conditions: Homo sapiens
Description: SANGER: Inhibition of human NCI-H1703 cell growth in a cell viability assay.

MDA-MB-415 = format: functional, cell-based; conditions: Homo sapiens
SW948 = format: functional, cell-based; conditions: Homo sapiens
Description: SANGER: Inhibition of human SW948 cell growth in a cell viability assay.

HSC-3 = format: functional, cell-based; conditions: Homo sapiens
Description: SANGER: Inhibition of human HSC-3 cell growth in a cell viability assay.

COLO-678 = format: functional, cell-based; conditions: Homo sapiens
Description: SANGER: Inhibition of human COLO-678 cell growth in a cell viability assay.

CP66-MEL = format: functional, cell-based; conditions: Homo sapiens
Description: SANGER: Inhibition of human CP66-MEL cell growth in a cell viability assay.

HCC38 = format: functional, cell-based; conditions: Homo sapiens
Description: SANGER: Inhibition of human HCC38 cell growth in a cell viability assay.

SF-295 = format: functional, cell-based; conditions: Homo sapiens
Description: SANGER: Inhibition of human SF295 cell growth in a cell viability assay.

TCC-SUP = format: functional, cell-based; conditions: Homo sapiens
Description: SANGER: Inhibition of human TCCSUP cell growth in a cell viability assay.

CAL-54 = format: functional, cell-based; conditions: Homo sapiens
Description: SANGER: Inhibition of human CAL-54 cell growth in a cell viability assay.

CHL-1 = format: functional, cell-based; conditions: Homo sapiens
Description: SANGER: Inhibition of human CHL-1 cell growth in a cell viability assay.

SK-MEL-28 = format: functional, cell-based; conditions: Homo sapiens
Description: SANGER: Inhibition of human SK-MEL-28 cell growth in a cell viability assay.

SW1088 = format: functional, cell-based; conditions: Homo sapiens
Description: SANGER: Inhibition of human SW1088 cell growth in a cell viability assay.

UACC-62 = format: functional, cell-based; conditions: Homo sapiens
Description: SANGER: Inhibition of human UACC-62 cell growth in a cell viability assay.

SiHa = format: functional, cell-based; conditions: Homo sapiens
Description: SANGER: Inhibition of human SiHa cell growth in a cell viability assay.

AN3-CA = format: functional, cell-based; conditions: Homo sapiens
Description: SANGER: Inhibition of human AN3-CA cell growth in a cell viability assay.

SK-MEL-30 = format: functional, cell-based; conditions: Homo sapiens
Description: SANGER: Inhibition of human SK-MEL-30 cell growth in a cell viability assay.

HCC1937 = format: functional, cell-based; conditions: Homo sapiens
Description: SANGER: Inhibition of human HCC1937 cell growth in a cell viability assay.

SK-MEL-24 = format: functional, cell-based; conditions: Homo sapiens
Description: SANGER: Inhibition of human SK-MEL-24 cell growth in a cell viability assay.

AGS = format: functional, cell-based; conditions: Homo sapiens
Description: SANGER: Inhibition of human AGS cell growth in a cell viability assay.

SNU-423 = format: functional, cell-based; conditions: Homo sapiens
Description: SANGER: Inhibition of human SNU-423 cell growth in a cell viability assay.

C3A = format: functional, cell-based; conditions: Homo sapiens
Description: SANGER: Inhibition of human C3A cell growth in a cell viability assay.

H4 = format: functional, cell-based; conditions: Homo sapiens
Description: SANGER: Inhibition of human H4 cell growth in a cell viability assay.

NCI-H1573 = format: functional, cell-based; conditions: Homo sapiens
Description: SANGER: Inhibition of human NCI-H1573 cell growth in a cell viability assay.

NY = format: functional, cell-based; conditions: Homo sapiens
Description: SANGER: Inhibition of human NY cell growth in a cell viability assay.

GAMG = format: functional, cell-based; conditions: Homo sapiens
Description: SANGER: Inhibition of human GAMG cell growth in a cell viability assay.

CAL-72 = format: functional, cell-based; conditions: Homo sapiens
Description: SANGER: Inhibition of human CAL-72 cell growth in a cell viability assay.

HuO9 = format: functional, cell-based; conditions: Homo sapiens
Description: SANGER: Inhibition of human HuO9 cell growth in a cell viability assay.

WM-115 = format: functional, cell-based; conditions: Homo sapiens
Description: SANGER: Inhibition of human WM-115 cell growth in a cell viability assay.

HGC-27 = format: functional, cell-based; conditions: Homo sapiens
Description: SANGER: Inhibition of human HGC-27 cell growth in a cell viability assay.

NCI-H1623 = format: functional, cell-based; conditions: Homo sapiens
Description: SANGER: Inhibition of human NCI-H1623 cell growth in a cell viability assay.

DU-145 = format: functional, cell-based; conditions: Homo sapiens
Description: SANGER: Inhibition of human DU-145 cell growth in a cell viability assay.

OE19 = format: functional, cell-based; conditions: Homo sapiens
Description: SANGER: Inhibition of human OE19 cell growth in a cell viability assay.

NB12 = format: functional, cell-based; conditions: Homo sapiens
Description: SANGER: Inhibition of human NB12 cell growth in a cell viability assay.

HOS = format: functional, cell-based; conditions: Homo sapiens
Description: SANGER: Inhibition of human HOS cell growth in a cell viability assay.

CAMA-1 = format: functional, cell-based; conditions: Homo sapiens
Description: SANGER: Inhibition of human CAMA-1 cell growth in a cell viability assay.

BHY = format: functional, cell-based; conditions: Homo sapiens
Description: SANGER: Inhibition of human BHY cell growth in a cell viability assay.

HOP-92 = format: functional, cell-based; conditions: Homo sapiens
Description: SANGER: Inhibition of human HOP-92 cell growth in a cell viability assay.

G-361 = format: functional, cell-based; conditions: Homo sapiens
SJRH30 = format: functional, cell-based; conditions: Homo sapiens
Description: SANGER: Inhibition of human SJRH30 cell growth in a cell viability assay.

SK-N-AS = format: functional, cell-based; conditions: Homo sapiens
Description: SANGER: Inhibition of human SK-N-AS cell growth in a cell viability assay.

HTC-C3 = format: functional, cell-based; conditions: Homo sapiens
Description: SANGER: Inhibition of human HTC-C3 cell growth in a cell viability assay.

NCI-H2122 = format: functional, cell-based; conditions: Homo sapiens
Description: SANGER: Inhibition of human NCI-H2122 cell growth in a cell viability assay.

## NC(=O)c1ccc(N(C(N)=O)c2c(F)cccc2F)nc1-c1ccc(F)cc1F [VX-702]
Ca9-22
  IC50: > 2000 nM
ABC-1
  IC50: > 2000 nM
NCI-H727
  IC50: > 2000 nM
EC-GI-10
  IC50: > 2000 nM
UMUC3
  IC50: > 2000 nM
NCI-H1703
  IC50: > 2000 nM
MDA-MB-415
  IC50: > 2000 nM
SW948
  IC50: > 2000 nM
HSC-3
  IC50: > 2000 nM
COLO-678
  IC50: > 2000 nM
CP66-MEL
  IC50: > 2000 nM
HCC38
  IC50: > 2000 nM
SF-295
  IC50: > 2000 nM
TCC-SUP
  IC50: > 2000 nM
CAL-54
  IC50: > 2000 nM
CHL-1
  IC50: > 2000 nM
SK-MEL-28
  IC50: > 2000 nM
SW1088
  IC50: > 2000 nM
UACC-62
  IC50: > 2000 nM
SiHa
  IC50: > 2000 nM
AN3-CA
  IC50: > 2000 nM
SK-MEL-30
  IC50: > 2000 nM
HCC1937
  IC50: > 2000 nM
SK-MEL-24
  IC50: > 2000 nM
AGS
  IC50: 153 nM
SNU-423
  IC50: > 2000 nM
C3A
  IC50: > 2000 nM
H4
  IC50: > 2000 nM
NCI-H1573
  IC50: > 2000 nM
NY
  IC50: > 2000 nM
GAMG
  IC50: > 2000 nM
CAL-72
  IC50: > 2000 nM
HuO9
  IC50: > 2000 nM
WM-115
  IC50: > 2000 nM
HGC-27
  IC50: > 2000 nM
NCI-H1623
  IC50: > 2000 nM
DU-145
  IC50: 146 nM
OE19
  IC50: > 2000 nM
NB12
  IC50: > 2000 nM
HOS
  IC50: > 2000 nM
CAMA-1
  IC50: > 2000 nM
BHY
  IC50: > 2000 nM
HOP-92
  IC50: > 2000 nM
G-361
  IC50: 1500 nM
SJRH30
  IC50: > 2000 nM
SK-N-AS
  IC50: > 2000 nM
HTC-C3
  IC50: > 2000 nM
NCI-H2122
  IC50: > 2000 nM

## CN(NC(=O)CC(=O)NN(C)C(=S)c1ccccc1)C(=S)c1ccccc1 [ELESCLOMOL]
Ca9-22
  IC50: 4.25 nM
ABC-1
  IC50: 0.365 nM
NCI-H727
  IC50: > 200 nM
EC-GI-10
  IC50: 44.6 nM
UMUC3
  IC50: 7.06 nM
NCI-H1703
  IC50: 3.68 nM
MDA-MB-415
  IC50: 137 nM
SW948
  IC50: > 200 nM
HSC-3
  IC50: 3.02 nM
COLO-678
  IC50: 42.5 nM
CP66-MEL
  IC50: 55.1 nM
HCC38
  IC50: > 200 nM
SF-295
  IC50: 9.2 nM
TCC-SUP
  IC50: 13.5 nM
CAL-54
  IC50: > 200 nM
CHL-1
  IC50: 2.81 nM
SK-MEL-28
  IC50: 79.7 nM
SW1088
  IC50: 82.1 nM
UACC-62
  IC50: 23.2 nM
SiHa
  IC50: 31.1 nM
AN3-CA
  IC50: 10.8 nM
SK-MEL-30
  IC50: > 200 nM
HCC1937
  IC50: 35.2 nM
SK-MEL-24
  IC50: > 200 nM
AGS
  IC50: 2.86 nM
SNU-423
  IC50: 15.2 nM
C3A
  IC50: > 200 nM
H4
  IC50: 7.25 nM
NCI-H1573
  IC50: 189 nM
NY
  IC50: 37.6 nM
GAMG
  IC50: 2.51 nM
CAL-72
  IC50: 3.02 nM
HuO9
  IC50: 21.5 nM
WM-115
  IC50: 34 nM
HGC-27
  IC50: 7.59 nM
NCI-H1623
  IC50: 179 nM
DU-145
  IC50: > 200 nM
OE19
  IC50: > 200 nM
NB12
  IC50: 48 nM
HOS
  IC50: 2.53 nM
CAMA-1
  IC50: > 200 nM
BHY
  IC50: 107 nM
HOP-92
  IC50: 12.7 nM
G-361
  IC50: 27.5 nM
SJRH30
  IC50: 100 nM
SK-N-AS
  IC50: 30 nM
HTC-C3
  IC50: 30.4 nM
NCI-H2122
  IC50: 130 nM
